{
  "source": "patent US9339486B2",
  "about": "“Heterocyclic modulators of cannabinoid receptors” (THE CLEVELAND CLINIC FOUNDATION, priority 2008, dated 2016)",
  "key": {"[1]": {"molecular_target": "hCB1 (human CB1) receptors (Homo sapiens (Human), UniProt P21554)", "test": "GTPγ[35S] functional assay, CHO membrane extracts hCB1", "assay_type": "biochemical", "procedure": "(§1) Functional activity was evaluated using GTPγ[^35S] assay in CHO membrane extracts expressing recombinant hCB1 (human CB1) receptors or hCB2 (human CB2) receptors. The assay relies on the binding of GTPγ[^35S], a radiolabeled nonhydrolyzable GTP analogue, to the G protein upon binding of an agonist of the G-protein-coupled receptor. In this system, agonists stimulate GTPγ[^35S] binding whereas neutral antagonist have no effect and inverse agonists decrease GTPγ[^35S] basal binding.\n(§2) The compound of Example 3 was solubilized in 100% DMSO at a concentration of 10 mM within 4 hours of the first testing session (master solution). A predilution for the dose response curve was performed in 100% DMSO and then diluted 100 fold in assay buffer at a concentration 2 fold higher than the concentration to be tested. […] For GTPγS membranes were mixed with GDP diluted in assay buffer to give 30 μM solution (volume:volume) and incubated for at least […] on ice. In parallel, GTPγ[^35S] (GE Healthcare, Catalogue number SJ1308) were mixed with the beads (PVT-WGA (GE Healthcare, RPNQ001)), diluted in assay buffer at 50 mg/ml (0.5 mg/10 μl) (volume:volume) just before starting the reaction. […] Then the plates were centrifuged for 10 min at 2000 rpm and counted for 1 min/well with a PerkinElmer TopCount reader. […]"}, "[2]": {"molecular_target": "rCB2 receptors (Rattus norvegicus (Rat), UniProt Q9QZN9)", "test": "cAMP activation assay rCB2", "assay_type": "cell-based", "conditions": "read-out: Agonist EC50 (mean ± s.e. mean) cAMP activation assays rCB2", "procedure": "The compound of Example 3 was tested for agonist activity at the rat CB1 (rCB1) and rCB2 receptors, at eight concentrations, in duplicate: 10, 3, 1, 0.3, 0.1, 0.03, 0.01 and 0.001 μM. Recombinant cells grown to mid-log phase in culture media without antibiotics were detached with PBS containing 5 mM EDTA, centrifuged and resuspended in assay buffer at a concentration of 16.6×10^5 cells/ml. The test was performed in 96 well plates. For testing, 12 μl of cells ([…]) were mixed with 12 μl of agonist at increasing concentrations. […] The plates were then incubated for 30 min at room temperature. After addition of the lysis buffer, cAMP concentrations were estimated, according to the manufacturer specification, with the HTRF kit from Cis-Bio International (Catalogue number 62AM2PEB)."}, "[3]": {"molecular_target": "hCB2 (human CB2) receptors (Homo sapiens (Human), UniProt P34972)", "test": "GTPγ[35S] functional assay, CHO membrane extracts hCB2", "assay_type": "biochemical", "procedure": "as §1, §2"}, "[4]": {"system": "paclitaxel-induced neuropathy", "test": "Prevention of neuropathy induced by paclitaxel", "assay_type": "in vivo, rat", "procedure": "A mixture of saline and CREMOPHOR® ELP 10% was used as vehicle for paclitaxel. It was injected at a concentration of 1.0 mg/kg intraperitoneally to the chemotherapy-treated group of rats on 4 consecutive days for a final cumulative dose of 4 mg/kg to 18 rats.\nPaw withdrawal thresholds were determined daily in both hind paws of each animal using calibrated von Frey monofilaments according to an up-down procedure. A series of von Frey filaments with exponentially incremental degrees of stiffness (0.4, 0.7, 1.2, 2.0, 3.6, 5.5, 8.5, and 15.1 g) was used to measure the 50% threshold for both hindpaw withdrawal in awake, unrestrained rats. Chaplan, S. R., Quantitative assessment of tactile allodynia in the rat paw, Journal of Neuroscience Methods, 1994, 53:55-63. Brisk paw withdrawal from the pressure of a filament gently bent against the plantar surface of the paw was defined as a positive response, and absence of withdrawal within 6 sec was considered a negative response. The series of filaments touched the hindpaw in sequential ascending or descending order of stiffness until the threshold of response was crossed (allowing about 10 sec between each increment). Each time the threshold was crossed, the direction of stimulus presentation was reversed and the procedure resumed. Four responses were collected after the first threshold detection, and the 50% withdrawal thresholds was interpolated. In cases in which the response thresholds fall outside the range of detection, 15.1 and 0.25 g were assigned for continuous negative or positive responses, respectively, to the limits of stimulation. FIG. 17 and FIG. 18 show results from these experiments and that peripheral neuropathy started to develop within a few days. FIG. 18 reflects that a plateau was reached by the 10th day.\nGroup 1 of rats received paclitaxel for four days, as described immediately above in subpart (A) titled “Paclitaxel-induced Neuropathy.” In group 2, a dose of 15 mg/kg of the compound of Example 3, injected intraperitoneally was administered 30 minutes prior to the administration of paclitaxel. In group 3, vehicle of the compound of Example 3 was administered 30 min prior to the administration of paclitaxel. Paw withdrawal thresholds were determined daily in both hind paws of each animal using calibrated von Frey monofilaments according to an up-down procedure as described immediately above in subpart (A) titled “Paclitaxel-induced Neuropathy.” The results are shown in FIG. 17.\nFIGS. 19A and 19B show results from an experiment in which three groups of rats were administered 0.25 mL of the compound of Example 3 or the vehicle, a mixture of NMP, propylene glycol, chromophore ELP (25%, 25%, 10%) in sterile water 30 min prior to the administration of paclitaxel. Two of the three experimental groups continued to receive either the vehicle or the compound of Example 3 daily for 11 more days."}, "[5]": {"molecular_target": "CB1 (Homo sapiens (Human), UniProt P21554)", "sequence (P21554 whole entry)": "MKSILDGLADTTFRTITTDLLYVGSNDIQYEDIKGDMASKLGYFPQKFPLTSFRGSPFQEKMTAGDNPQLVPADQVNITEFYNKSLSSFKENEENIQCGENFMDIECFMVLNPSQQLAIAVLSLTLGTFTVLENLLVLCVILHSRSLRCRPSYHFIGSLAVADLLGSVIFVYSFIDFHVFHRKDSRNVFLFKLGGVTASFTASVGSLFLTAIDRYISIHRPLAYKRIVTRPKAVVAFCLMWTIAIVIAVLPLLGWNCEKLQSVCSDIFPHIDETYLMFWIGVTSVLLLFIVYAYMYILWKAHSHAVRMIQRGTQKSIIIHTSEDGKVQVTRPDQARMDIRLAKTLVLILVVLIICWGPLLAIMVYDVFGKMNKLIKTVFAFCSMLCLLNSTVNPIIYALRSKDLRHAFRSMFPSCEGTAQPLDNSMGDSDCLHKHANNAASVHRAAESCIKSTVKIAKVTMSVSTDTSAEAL", "test": "CB1 Binding Assay ([3H]CP 55940, cell membrane homogenates)", "procedure": "After being incubated, the samples were filtered rapidly under vacuum through glass fiber filters (GF/B; Packard) presoaked with 0.3% PEI and rinsed several times with ice-cold buffer containing 50 mM Tris HCl (pH 7.4) and 0.5% BSA using a 96-sample cell harvester (Unifilter; Packard). The filters were dried then counted for radioactivity in a scintillation counter (Topcount; Packard) using a scintillation cocktail (Microscint 0; Packard). The results were expressed as a percentage of the inhibition of the control radioligand-specific binding. The reference standard compounds were tested in each experiment at several concentrations to obtain a competition curve from which its IC50 was calculated."}, "[6]": {"conditions": "CB1, test concentration 1.0E−05 (MD)"}},
  "data": [
    {"smiles": "CC1(Cc2ccccc2)COc2cc(C(=O)N3CCCCC3)ccc21", "note": "(centres unmarked) [Example 3, 3-benzyl-3-methyl-2,3-dihydrobenzofuran-6-carboxylic acid-piperidine amide]", "values": [
      {"measurement": "agonistic or antagonistic activities at hCB1 receptors", "setting": "[1]", "result": "did not result in any agonistic or antagonistic activities"},
      {"measurement": "EC50", "setting": "[1]; read-out: Agonist EC50 (mean ± s.e. mean) GTPγ[35S] functional assays hCB1", "result": "> 10000", "unit": "nM"},
      {"measurement": "EC50", "setting": "[2]", "result": "21.7 ± 7.9", "unit": "nM"},
      {"measurement": "Emax", "setting": "[3]", "result": 88, "unit": "%"},
      {"measurement": "EC50", "setting": "[3]; read-out: Agonist EC50 (mean ± s.e. mean) GTPγ[35S] functional assays hCB2", "result": 128, "unit": "nM"},
      {"measurement": "development of paclitaxel-evoked mechano-allodynia", "setting": "[4]; 15 mg/kg for 4 days only", "result": "did not prevent but significantly prevented the severity"},
      {"measurement": "prevention of paclitaxel-induced neuropathy, share of rats", "setting": "[4]; administered for 14 days (4 days concomitant with paclitaxel and further 10 days)", "result": 100, "unit": "%"},
      {"measurement": "prevention of paclitaxel-induced neuropathy", "setting": "[4]; administered for four days only", "result": "short-lived prevention"},
      {"measurement": "development of paclitaxel-evoked mechano-allodynia", "setting": "[4]; continued 15 mg/kg IP daily", "result": "completely prevented"},
      {"measurement": "% Inhibition of Control Specific Binding", "setting": "[5]; [6]", "result": 71, "unit": "%"},
      {"measurement": "% of Control Specific Binding Mean", "setting": "[5]; [6]", "result": 29, "unit": "%"},
      {"measurement": "% of Control Specific Binding 1st", "setting": "[5]; CB1, test concentration 1.0E−05 (MD), first replicate", "result": 22, "unit": "%"},
      {"measurement": "% of Control Specific Binding 2nd", "setting": "[5]; CB1, test concentration 1.0E−05 (MD), second replicate", "result": 36, "unit": "%"},
      {"measurement": "% Inhibition of Control Specific Binding CB1", "setting": "[5]; as repeated in Table 3", "result": 71, "unit": "%"}
    ]}
  ]
}
